Results on 11 compounds are retold here after patent publication US12226405B2, “Compounds and compositions for inhibiting the activity of HIF2-alpha and their methods of use” (Novartis AG, priority 2020, dated 2025).

Usually IC50 stands for the concentration that inhibits the measured activity by half.

Experiment [1] concerns HIF2α-regulated expression of the endogenous target gene hEGLN3 in 786-O cells. Nature of the experiment: Cellular iScript assay for HIF2α (quantitative RT-PCR of hEGLN3). It is filed as cell-based, human. The method, then: (§1) Stock solutions of compounds were prepared at a concentration of 10 mM in DMSO and stored at 4° C. Where necessary to afford a full dose-response curve, the stock solutions were pre-diluted in DMSO to 1,000-fold the desired reduced start concentration. On the day after cell seeding, eleven 2-fold serial dilutions of each compound were dispensed directly into the cell assay plates using either HP 300D non-contact Digital Dispenser (TECAN) or a ATS100 acoustic dispenser (EDC Biosystems).
Compound-mediated modulation of the HIF2α-regulated expression of the endogenous target gene hEGLN3 (OMIM: 606426), as well as beta-actin (OMIM: 102630) as a house-keeping control, was assess in 786-O cells (RRID CVCL_1051) using a quantitative RT-PCR approach. In short, 786-O cells were maintained in growth medium composed of DMEM (GIBCO #11995-065), 2 mM L-Glutamine (BioConcept #5-10K50-H), 1× Penicillin/Streptomycin (BioConcept #4-01F00-H), 10% fetal calf serum (Gibco #A31608-01), 1 mM Sodium pyruvate (BioConcept #5-60F00-H). Cells were seeded at 1,000 cells/20 μL/well into white-wall, clear-bottom 384-well plates (Greiner #781098) and incubated over night at 37° C. prior to addition of serial compound dilutions as described above. Following incubation for 48 hours at 37° C., medium supernatant was discarded and the plate blotted dry by inverting on a tissue. The same procedure was repeated following one wash with 20 μL phosphate-buffered saline. Following addition of 25 μL/well iScript sample preparation reagent (BioRad #170-8899) using a 16-channel Matrix pipette, the plate was incubated for 2 min at room temperature. 20 μL lysate supernatant was then removed and transferred to a new 384 well plate (Costar #3656) and diluted 1:3 by adding 5 μL of the lysate to 10 μL H2O using a Bravo liquid handler (Agilent). 2 μL of the diluted lysate was added to the 8 μL of a mastermix containing 5 μL iTaq Universal Probes One-step kit (BioRad #172-5141), 0.25 μL iScript reverse transcription supermix (BioRad #1708840), 0.25 μL 40×HEX-ZEN-labeled TaqMan probe for beta-actin (IDT #Hs.PT.39a.22214847: Probe 5′ HEX-TCA TCC ATG/ZEN/GTG AGC TGG CGG-3′ (SEQ ID NO: 2) Iowa Black FQ, Primer 1: ACA GAG CCT CGC CTT TG (SEQ ID NO: 3); Primer 2: CCT TGC ACA TGC CGG (SEQ ID NO: 4) AG), 0.25 μL, 40×FAM-ZEN-labeled TaqMan probe for hEGLN3 (IDT #Hs.PT.58.189348: Probe 5′ 6-FAM-TTT GGC TTC/ZEN/TGC CCT TTC TTC AGC-3′ (SEQ ID NO: 5) Iowa Black FQ, Primer 1: CACGGTCAGTCTTCAGTGAG (SEQ ID NO: 6); Primer 2: CGCAACCAGATATGCTATGACT (SEQ ID NO: 7)), 2.25 μL RNase-free water, prelaid in a 384 well plate (ABI #4309849) using a 16-channel Matrix pipette. The plate was sealed with a PCR-compatible optical film (MicroAmp, ABI #4360954) and centrifuged (1500 rpm, 5 min, +4° C.) to collect all reagents in the bottom of the well and to remove bubbles. The plate content was amplified on a 7900HT thermal cycler (ABI) using the following conditions: Step 1: 50° C. for 10 min, Step 2: 95° C. for 3 min, Step 3 (40×): 95° C. for 15 s, 60° C. for 1 min. ROX (reaction volume 10 μL) was used as a passive reference. Data were collected with manual adjustment of the Ct threshold (beta-actin: 0.046, hEGLN3: 0.06) and were analyzed using the 2^(−ΔΔCt) method. Thus, for each sample, the following values were calculated: 2^(−Ct)a for beta-actin, 2^(−Ct)e for EGLN3, and 2^(−ΔCt) calculated as (2^(−Ct)e/2^(−Ct)a). The mean 2^(−ΔCt) as well as the corresponding standard deviation was calculated for each sample. Taking the DMSO-treated sample as a reference, the 2^(−ΔΔCt) for each sample was calculated as follows: 2^(−ΔΔCt)=2^(−ΔCt)sample/(2^(−ΔCt)DMSO). After calculating differential expression as 2^(−ΔΔCt) for each sample, it was then expressed as a percentage (×100) to obtain a dose-response curve in % of DMSO control and IC50s were calculated using a four-parametric fit model.

Experiment [2] concerns HIF2α-dependent transcription in 786-O-HRE-Luc cells. Nature of the experiment: In vitro cellular hypoxia response element (HRE) reporter gene assay (RGA) for HIF2α. It is filed as cell-based, human. Particulars: 24 hours incubation. As to the method: as §1
The ability of compounds to inhibit HIF2α- and HIF1α-dependent transcription was assessed in 786-O-HRE-Luc and RCC4-HRE-Luc cells, respectively. The putative unselective inhibition of firefly luciferase activity or expression was assessed in 786-O-UB6-Luc and RCC4-UB6-Luc cells, respectively. The reporter lines were generated as follows: 786-O (RRID: CVCL_1051) and RCC4 (RRID: CVCL_0498) clear cell renal carcinoma cell lines were obtained from ATCC and Celeste Simon (University of Pennsylvania), respectively. Either cell line was transduced with a lentiviral vector in which the expression of a PEST-destabilized version of firefly-luciferase is under the control of either a minimal promoter coupled to four copies of a minimal hypoxia response element (HRE) sequence (pLenti 4×HRE Luc PEST), or a promoter from the house-keeping UBC gene (pLenti UB6 Luc PEST). In short, for the construction of the pLenti 4×HRE Luc PEST vector, 4×HRE DNA oligonucleotides were synthesized, annealed and cloned into pGL4.27 plasmid vector (Promega) predigested with NheI and HindIII restriction enzymes. The sequence of the two DNA oligonucleotides was as follows: NheI 4×HRE HindIII FWD: […] (SEQ ID NO: 8); NheI 4×HRE HindIII REV […] (SEQ ID NO: 9). The 4×HRE Luc PEST fragment was then PCRed from this plasmid with restriction enzyme sites NheI and XhoI at the two ends, and inserted into pLenti6/BLOCK iT DEST (Thermo Fisher Scientific) predigested with NheI and XhoI restriction enzymes. For the construction of the pLenti UB6 Luc PEST vector, the Luc PEST sequence was PCRed from pGL4.27 (Promega) using EcoRV and XhoI restriction enzymes at the two ends, and inserted into pLenti6/UBC/V5/DEST (Thermo Fisher Scientific) predigested with the same enzymes. 786-O and RCC4 cells (300,000 per well of a 6 well plate) were infected in the presence of 10 μg/ml polybrene with lentivirus harvested two days after transfection of HEK293-FT (ThermoFisher Scientific #R70007) cells (80% confluent in a 100 cm^2 dish) with a mix of 1.5 ml OptiMEM (ThermoFisher Scientific #31985062) containing 3 μg of the desired plasmids and 9 μl of ViralPower Packaging mix (ThermoFisher Scientific #K497500), and 1.5 ml OptiMEM containing 36 μl Lipofectamine 2000 (ThermoFisher Scientific #11668019). Successfully infected cells were selected using blasticidin (Gibco #A11139-03) at a final concentration of 5 μg/ml. The resulting stable cell lines were named 786-O pLenti 4×HRE Luc PEST (short: 786-O-HRE-Luc), 786-O pLenti UB6 Luc PEST (short: 786-O-UB6-Luc), RCC4 pLenti 4×HRE Luc PEST (short: RCC4-HRE-Luc) and RCC4 pLenti UB6 Luc PEST (short: RCC4-UB6-Luc). All 4 cell lines were maintained in growth medium composed of DMEM (GIBCO #11995-065), 2 mM L-Glutamine (BioConcept #5-10K50-H), 10% fetal calf serum (Gibco #A31608-01), 1× Penicillin/Streptomycin (BioConcept #4-01F00-H), 1 mM Sodium pyruvate (BioConcept #5-60F00-H) and 5 μg/ml blasticidin (Gibco #A11139-03) at 37° C. in a humidified 5% CO2 incubator.
For the reporter gene assay, the individual cell lines were seeded at 2,500 cells/20 μL/well into white-wall, clear-bottom 384-well plates (Greiner #781098) and incubated over night at 37° C. prior to addition of serial compound dilutions as described above. […]
For orientation: A reporter such as luciferase makes a cellular process visible.

For experiment [3], the target named is HIF2α PAS-B domain (236-350, biotinylated on the N-terminus) (Homo sapiens (Human), UniProt Q99814).
Sequence of HIF2α PAS-B domain (236-350, biotinylated on the N-terminus) (Q99814 236-350): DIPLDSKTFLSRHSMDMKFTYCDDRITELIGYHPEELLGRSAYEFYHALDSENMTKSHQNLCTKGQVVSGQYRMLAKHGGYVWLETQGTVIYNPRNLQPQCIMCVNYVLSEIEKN
Method: The assay buffer contained 50 mM Tris-HCl pH7 (Sigma), 20 mM NaCl (Fluka), 0.02% BSA (Sigma), 0.005% Triton X-100 (Pierce) and 1 mM DTT (Fluka). After a 30 min incubation period, 5 μL Streptavidin PVT SPA Beads (Perkin Elmer) at 1.2 mg/mL, diluted in the buffer, were added.
The mark [4] stands for this setting: Homo sapiens, 786-0, 48 hours incubation.

For `N#CC1=CN2C[C@@]3(CCSc4c3ccc(Cl)c4F)N=C2C(OC(F)F)=C1` [Example 64, (S)-7′-chloro-8-(difluoromethoxy)-8′-fluoro-3H-spiro[imidazo[1,2-a]pyridine-2,4′-thiochroman]-6-carbonitrile], the IC50 amounted to 51 nM in experiment [1] (setting [4]), 236 nM in experiment [2] (Homo sapiens) and 10 nM in experiment [3].
Take `N#CC1=CN2C[C@@]3(CCc4cc(I)ccc43)N=C2C(OC(F)F)=C1` [Example 73, (S)-8-(difluoromethoxy)-5′-iodo-2′,3′-dihydro-3H-spiro[imidazo[1,2-a]pyridine-2,1′-indene]-6-carbonitrile]: the IC50 was 135 nM in experiment [1] (setting [4]), 542 nM in experiment [2] (Homo sapiens) and no more than 6 nM in experiment [3].
Taken in the same sequence, the figures for `Fc1c(OC(F)F)ccc2c1OCC[C@@]21CN2C=C(C(F)(F)F)C=C(OC(F)F)C2=N1` [Example 54, (S)-7,8′-bis(difluoromethoxy)-8-fluoro-6′-(trifluoromethyl)-3′ H-spiro[chroman-4,2′-imidazo[1,2-a]pyridine]] were 85 nM, 317 nM and 33 nM.
Consider `O=C1c2c(F)cccc2[C@@]2(C[C@@H]1F)CN1C=C(C(F)(F)F)C=C(OC(F)F)C1=N2` [Example 21], for which the IC50 came to 121 nM in experiment [1] (48 hours incubation), 1100 nM in experiment [2] and 36 nM in experiment [3].
Regarding `Fc1c(Br)ccc2c1CCC[C@@]21CN2C=C(C(F)(F)F)C=C(Cl)C2=N1` [Example 16, (S)-6′-bromo-8-chloro-5′-fluoro-6-(trifluoromethyl)-3′,4′-dihydro-2′H,3H-spiro[imidazo[1,2-a]pyridine-2,1′-naphthalene]], the IC50 is 43 nM in experiment [1] (setting [4]), 372 nM in experiment [2] (Homo sapiens) and no more than 6 nM in experiment [3].
Regarding `Fc1ccc2c(c1F)OCC[C@@]21CN2C=C(C(F)(F)F)C=C(OC(F)F)C2=N1` [Example 45, (S)-8′-(difluoromethoxy)-7,8-difluoro-6′-(trifluoromethyl)-3′H-spiro[chroman-4,2′-imidazo[1,2-a]pyridine]], the IC50 in experiment [1] (setting [4]) was 85 nM; in experiment [2] (Homo sapiens), 313 nM; in experiment [3], no more than 10 nM.
`FC(F)OC1=CC(C(F)(F)F)=CN2C[C@@]3(CCOc4c(C(F)F)cccc43)N=C12` [Example 55, (S)-8′-(difluoromethoxy)-8-(difluoromethyl)-6′-(trifluoromethyl)-3′H-spiro[chroman-4,2′-imidazo[1,2-a]pyridine]]: the IC50 in experiment [1] (setting [4]) was found to be 115 nM; in experiment [2] (Homo sapiens), 7650 nM; in experiment [3] it was 9 nM.
Turning to `FC(F)(F)C1=CN2C[C@@]3(CCOc4cc(C(F)(F)F)ccc43)N=C2C(Cl)=C1` [Example 53, (S)-8′-chloro-6′,7-bis(trifluoromethyl)-3′H-spiro[chroman-4,2′-imidazo[1,2-a]pyridine]], the IC50 in experiment [1] (setting [4]) was found to be 184 nM; in experiment [2] (Homo sapiens), 839 nM; in experiment [3], 14 nM.
Regarding `COc1ccc2c(c1F)CCC[C@@]21CN2C=C(C(F)(F)F)C=C(OC(F)F)C2=N1` [Example 84, (S)-8-(difluoromethoxy)-5′-fluoro-6′-methoxy-6-(trifluoromethyl)-3′,4′-dihydro-2′H,3H-spiro[imidazo[1,2-a]pyridine-2,1′-naphthalene]], the IC50 in experiment [1] (setting [4]) was found to be 69 nM; in experiment [2] (Homo sapiens), 184 nM; in experiment [3] it was 3 nM.
With `COc1ccc2c(c1F)CCC[C@@]21CN2C=C(C(F)(F)F)C=C(F)C2=N1` [Example 76, (S)-5′,8-difluoro-6′-methoxy-6-(trifluoromethyl)-3′,4′-dihydro-2′H,3H-spiro[imidazo[1,2-a]pyridine-2,1′-naphthalene]], the 50% inhibitory concentration (IC50) in experiment [1] (setting [4]) was found to be 175 nM; in experiment [2] (Homo sapiens) it was 777 nM; in experiment [3], 49 nM.
As to `FC1=CC(C(F)(F)F)=CN2C[C@@]3(CCCc4cc(C(F)(F)F)ccc43)N=C12` [Example 77, (S)-8-fluoro-6,6′-bis(trifluoromethyl)-3′,4′-dihydro-2′H,3H-spiro[imidazo[1,2-a]pyridine-2,1′-naphthalene]], the IC50 in experiment [1] (setting [4]) is 103 nM; in experiment [2] (Homo sapiens), 600 nM; in experiment [3], no more than 3 nM.
